Common to all, as to assay: biochemical
Holding throughout (set-up): DiscoverX KinomeScan competition binding assay across human kinases; per cent of control at 10 and 100 uM

One assay addresses CSF1R-autoinhibited (Homo sapiens, UniProt P07333). Particulars: competition binding, % of control; read-out: Percent Control (100 uM Levosimendan). An outline of the steps: (§1)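 Binding is expressed as %control, normalised between positive and negative control signals. The compound (levosimendan) was tested at 10 μM and 100 μM in the DiscoverX KinomeScan competition binding format against human kinases.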

The target of a further assay is MARK4 (Homo sapiens, UniProt Q96L34). Conditions: competition binding, % of control; read-out: Percent Control (100 uM Levosimendan). The method in brief: as §1
Another assay concerns the target T1, ERK1 (Homo sapiens, UniProt P27361).
T1 construct: gene MAPK3
Particulars: competition binding, % of control; read-out: Percent Control (100 uM Levosimendan). An outline of the steps:
as §1

The target in assay [1] is T2, RPS6KA4(Kin.Dom.2-C-terminal) (Homo sapiens, UniProt O75676).
T2 construct: Kin.Dom.2-C-terminal
Conditions: competition binding, % of control; read-out: Percent Control (100 uM Levosimendan). The method in brief: as §1

For a further assay, the target named is TIE1 (Homo sapiens, UniProt P35590). Particulars: competition binding, % of control; read-out: Percent Control (100 uM Levosimendan). The method in brief: as §1
A further assay deals with ACVR2B (Homo sapiens, UniProt Q13705). Conditions: competition binding, % of control; read-out: Percent Control (100 uM Levosimendan). An outline of the steps: as §1
For a further assay, the target named is T3, RIOK3 (Homo sapiens, UniProt O14730).
T3 sequence (O14730 1-519): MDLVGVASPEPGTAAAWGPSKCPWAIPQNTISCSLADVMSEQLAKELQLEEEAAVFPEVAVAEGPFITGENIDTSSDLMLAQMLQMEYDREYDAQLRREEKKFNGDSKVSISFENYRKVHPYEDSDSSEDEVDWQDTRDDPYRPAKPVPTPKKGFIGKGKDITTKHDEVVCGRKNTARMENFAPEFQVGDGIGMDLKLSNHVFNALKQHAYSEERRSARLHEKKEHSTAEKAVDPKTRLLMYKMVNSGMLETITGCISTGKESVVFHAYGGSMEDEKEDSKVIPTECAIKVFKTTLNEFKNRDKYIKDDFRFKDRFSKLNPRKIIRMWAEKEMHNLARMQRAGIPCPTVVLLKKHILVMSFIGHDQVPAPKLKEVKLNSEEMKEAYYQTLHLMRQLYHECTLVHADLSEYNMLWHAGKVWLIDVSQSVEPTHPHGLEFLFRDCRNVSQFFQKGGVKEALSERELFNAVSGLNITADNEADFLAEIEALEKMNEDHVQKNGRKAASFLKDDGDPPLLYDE
Conditions: competition binding, % of control. The method in brief:
as §1

For another assay, the target named is BRAF (Homo sapiens, UniProt P15056). Particulars: competition binding, % of control; read-out: Percent Control (100 uM Levosimendan). The method in brief:
as §1

For a further assay, the target named is T4, BRK (Homo sapiens, UniProt Q13882).
T4 construct: gene PTK6
Conditions: competition binding, % of control; read-out: Percent Control (100 uM Levosimendan). An outline of the steps: as §1

In another assay the target is TSSK3 (Homo sapiens, UniProt Q96PN8). Particulars: competition binding, % of control; read-out: Percent Control (100 uM Levosimendan). An outline of the steps:
as §1

The next assay concerns the target CAMK2A (Homo sapiens, UniProt Q9UQM7). Particulars: competition binding, % of control; read-out: Percent Control (100 uM Levosimendan). The method in brief:
as §1

The target in a further assay is MAP3K2 (Homo sapiens, UniProt Q9Y2U5). Conditions: competition binding, % of control; read-out: Percent Control (100 uM Levosimendan). The method in brief: as §1
For assay [2], the target named is T5, RPS6KA5(Kin.Dom.1-N-terminal) (Homo sapiens, UniProt O75582).
T5 construct: Kin.Dom.1-N-terminal
Particulars: competition binding, % of control; read-out: Percent Control (100 uM Levosimendan). An outline of the steps: as §1

The next assay concerns the target T6, TRKB (Homo sapiens, UniProt Q16620).
T6 construct: gene NTRK2
Conditions: competition binding, % of control; read-out: Percent Control (100 uM Levosimendan). The method in brief:
as §1

A further assay deals with T7, ASK1 (Homo sapiens, UniProt Q99683).
T7 construct: gene MAP3K5
Particulars: competition binding, % of control; read-out: Percent Control (100 uM Levosimendan). An outline of the steps:
as §1

Structures are written as SMILES.

T2 sequence (O75676 whole entry): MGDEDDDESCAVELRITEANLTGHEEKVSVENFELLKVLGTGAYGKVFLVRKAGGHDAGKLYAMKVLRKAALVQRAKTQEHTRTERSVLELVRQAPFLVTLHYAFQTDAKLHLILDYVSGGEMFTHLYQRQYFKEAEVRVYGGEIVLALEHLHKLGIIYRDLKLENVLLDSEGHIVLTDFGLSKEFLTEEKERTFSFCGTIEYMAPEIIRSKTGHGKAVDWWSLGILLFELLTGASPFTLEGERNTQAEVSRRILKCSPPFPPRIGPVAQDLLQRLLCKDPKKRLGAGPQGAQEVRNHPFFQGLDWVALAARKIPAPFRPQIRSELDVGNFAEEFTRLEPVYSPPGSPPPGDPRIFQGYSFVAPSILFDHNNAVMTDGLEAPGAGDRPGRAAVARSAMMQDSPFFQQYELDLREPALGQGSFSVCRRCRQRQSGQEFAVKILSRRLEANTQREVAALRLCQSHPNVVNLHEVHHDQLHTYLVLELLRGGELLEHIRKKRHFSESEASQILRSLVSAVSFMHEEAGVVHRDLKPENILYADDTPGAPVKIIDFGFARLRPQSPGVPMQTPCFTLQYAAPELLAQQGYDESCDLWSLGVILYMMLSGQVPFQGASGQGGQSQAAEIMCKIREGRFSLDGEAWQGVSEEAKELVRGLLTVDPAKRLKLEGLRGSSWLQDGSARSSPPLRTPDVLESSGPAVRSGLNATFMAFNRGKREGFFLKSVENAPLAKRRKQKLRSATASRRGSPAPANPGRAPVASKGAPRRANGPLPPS
T5 sequence (O75582 whole entry): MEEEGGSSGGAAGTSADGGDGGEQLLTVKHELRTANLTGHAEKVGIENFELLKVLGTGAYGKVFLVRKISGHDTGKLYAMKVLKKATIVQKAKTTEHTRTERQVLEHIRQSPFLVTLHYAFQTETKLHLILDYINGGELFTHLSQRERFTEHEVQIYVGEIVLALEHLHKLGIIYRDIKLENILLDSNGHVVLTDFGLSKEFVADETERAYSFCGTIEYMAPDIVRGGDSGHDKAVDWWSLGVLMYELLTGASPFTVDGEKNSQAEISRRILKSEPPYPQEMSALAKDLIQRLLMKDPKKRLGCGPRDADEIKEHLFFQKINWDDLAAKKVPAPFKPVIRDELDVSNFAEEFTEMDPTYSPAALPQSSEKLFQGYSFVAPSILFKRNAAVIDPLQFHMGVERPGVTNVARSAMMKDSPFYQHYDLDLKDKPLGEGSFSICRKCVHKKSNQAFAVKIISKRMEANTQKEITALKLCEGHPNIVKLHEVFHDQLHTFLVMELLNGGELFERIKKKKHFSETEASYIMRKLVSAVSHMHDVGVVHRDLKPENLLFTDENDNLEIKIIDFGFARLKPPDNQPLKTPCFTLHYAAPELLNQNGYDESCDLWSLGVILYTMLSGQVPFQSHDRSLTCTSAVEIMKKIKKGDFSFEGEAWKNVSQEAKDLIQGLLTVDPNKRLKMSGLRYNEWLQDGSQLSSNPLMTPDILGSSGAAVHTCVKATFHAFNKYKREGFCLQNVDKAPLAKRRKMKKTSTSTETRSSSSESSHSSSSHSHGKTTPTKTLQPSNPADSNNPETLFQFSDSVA
Sequence of MARK4 (Q96L34 whole entry): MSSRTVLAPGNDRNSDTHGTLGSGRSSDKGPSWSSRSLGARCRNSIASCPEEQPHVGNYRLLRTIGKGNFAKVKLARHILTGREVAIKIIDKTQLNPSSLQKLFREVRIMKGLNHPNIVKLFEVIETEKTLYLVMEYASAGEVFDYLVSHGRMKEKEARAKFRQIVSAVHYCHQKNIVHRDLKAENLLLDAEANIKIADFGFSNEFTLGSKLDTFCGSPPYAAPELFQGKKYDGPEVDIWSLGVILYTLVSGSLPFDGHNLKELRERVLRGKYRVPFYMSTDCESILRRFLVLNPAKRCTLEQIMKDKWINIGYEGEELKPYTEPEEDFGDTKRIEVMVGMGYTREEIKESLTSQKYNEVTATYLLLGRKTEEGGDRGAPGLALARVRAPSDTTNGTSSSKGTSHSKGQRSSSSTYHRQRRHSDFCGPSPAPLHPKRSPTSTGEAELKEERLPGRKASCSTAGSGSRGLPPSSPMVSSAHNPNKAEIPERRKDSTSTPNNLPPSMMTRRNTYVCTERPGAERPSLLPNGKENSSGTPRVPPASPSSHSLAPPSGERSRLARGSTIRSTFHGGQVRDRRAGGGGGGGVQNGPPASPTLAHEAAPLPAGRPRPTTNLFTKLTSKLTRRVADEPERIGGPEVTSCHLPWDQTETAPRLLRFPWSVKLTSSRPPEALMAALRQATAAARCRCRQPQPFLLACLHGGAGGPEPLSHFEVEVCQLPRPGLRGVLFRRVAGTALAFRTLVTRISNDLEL
Sequence of CSF1R-autoinhibited (P07333 whole entry): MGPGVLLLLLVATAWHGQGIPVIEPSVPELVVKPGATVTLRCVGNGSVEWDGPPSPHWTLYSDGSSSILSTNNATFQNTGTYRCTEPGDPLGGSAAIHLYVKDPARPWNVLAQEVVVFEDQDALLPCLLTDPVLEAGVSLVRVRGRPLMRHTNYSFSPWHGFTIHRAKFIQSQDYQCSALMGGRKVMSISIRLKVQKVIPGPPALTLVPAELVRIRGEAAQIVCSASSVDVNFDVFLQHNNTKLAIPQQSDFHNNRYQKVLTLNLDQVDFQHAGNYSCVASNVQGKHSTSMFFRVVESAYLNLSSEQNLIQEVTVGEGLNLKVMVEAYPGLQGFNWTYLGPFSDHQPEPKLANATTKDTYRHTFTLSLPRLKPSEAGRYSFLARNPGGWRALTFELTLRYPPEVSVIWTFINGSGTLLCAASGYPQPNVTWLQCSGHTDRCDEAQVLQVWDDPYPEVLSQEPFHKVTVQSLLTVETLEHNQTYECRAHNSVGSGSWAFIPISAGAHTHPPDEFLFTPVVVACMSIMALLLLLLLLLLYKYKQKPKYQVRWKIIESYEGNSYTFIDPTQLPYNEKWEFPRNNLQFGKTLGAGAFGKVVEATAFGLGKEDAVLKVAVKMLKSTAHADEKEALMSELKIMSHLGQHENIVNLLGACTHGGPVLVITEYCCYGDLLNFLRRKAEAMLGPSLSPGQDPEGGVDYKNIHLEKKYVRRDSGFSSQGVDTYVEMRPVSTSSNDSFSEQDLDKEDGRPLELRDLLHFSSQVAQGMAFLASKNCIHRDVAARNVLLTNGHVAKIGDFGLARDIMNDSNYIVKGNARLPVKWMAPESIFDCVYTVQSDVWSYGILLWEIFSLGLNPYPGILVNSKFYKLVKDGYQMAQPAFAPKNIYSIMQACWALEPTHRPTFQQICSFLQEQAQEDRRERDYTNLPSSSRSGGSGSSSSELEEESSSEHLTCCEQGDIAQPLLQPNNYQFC
Sequence of BRAF (P15056 whole entry): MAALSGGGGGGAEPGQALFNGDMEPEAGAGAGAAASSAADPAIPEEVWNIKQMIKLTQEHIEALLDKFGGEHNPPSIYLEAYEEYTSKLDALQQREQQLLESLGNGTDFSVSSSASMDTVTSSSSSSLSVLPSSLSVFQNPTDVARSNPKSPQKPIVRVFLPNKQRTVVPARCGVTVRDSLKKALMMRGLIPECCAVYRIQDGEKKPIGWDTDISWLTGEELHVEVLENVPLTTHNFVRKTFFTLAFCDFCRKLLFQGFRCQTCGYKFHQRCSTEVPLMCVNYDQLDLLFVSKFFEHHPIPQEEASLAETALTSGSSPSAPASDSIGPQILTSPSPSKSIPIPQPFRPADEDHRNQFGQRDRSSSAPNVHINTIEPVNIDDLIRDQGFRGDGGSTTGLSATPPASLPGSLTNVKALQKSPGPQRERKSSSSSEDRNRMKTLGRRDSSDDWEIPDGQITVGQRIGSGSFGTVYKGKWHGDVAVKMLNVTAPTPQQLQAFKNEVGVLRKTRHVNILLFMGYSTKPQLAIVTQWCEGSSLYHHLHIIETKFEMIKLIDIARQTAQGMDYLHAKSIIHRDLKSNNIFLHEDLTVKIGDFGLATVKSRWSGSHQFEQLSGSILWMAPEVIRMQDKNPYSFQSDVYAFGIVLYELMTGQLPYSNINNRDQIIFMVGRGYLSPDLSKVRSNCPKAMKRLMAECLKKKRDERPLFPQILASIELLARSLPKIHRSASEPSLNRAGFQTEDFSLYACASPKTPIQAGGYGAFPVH
T1 sequence (P27361 whole entry): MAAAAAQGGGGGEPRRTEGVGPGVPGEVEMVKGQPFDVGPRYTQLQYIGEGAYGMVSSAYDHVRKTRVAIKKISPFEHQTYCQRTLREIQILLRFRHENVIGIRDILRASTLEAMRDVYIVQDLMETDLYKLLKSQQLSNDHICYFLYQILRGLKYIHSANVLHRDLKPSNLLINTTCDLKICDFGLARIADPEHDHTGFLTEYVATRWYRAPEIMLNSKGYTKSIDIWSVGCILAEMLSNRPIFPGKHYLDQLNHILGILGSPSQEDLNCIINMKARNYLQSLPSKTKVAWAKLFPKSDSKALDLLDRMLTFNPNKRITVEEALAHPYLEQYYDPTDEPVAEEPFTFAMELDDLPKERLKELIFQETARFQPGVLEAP
T4 sequence (Q13882 whole entry): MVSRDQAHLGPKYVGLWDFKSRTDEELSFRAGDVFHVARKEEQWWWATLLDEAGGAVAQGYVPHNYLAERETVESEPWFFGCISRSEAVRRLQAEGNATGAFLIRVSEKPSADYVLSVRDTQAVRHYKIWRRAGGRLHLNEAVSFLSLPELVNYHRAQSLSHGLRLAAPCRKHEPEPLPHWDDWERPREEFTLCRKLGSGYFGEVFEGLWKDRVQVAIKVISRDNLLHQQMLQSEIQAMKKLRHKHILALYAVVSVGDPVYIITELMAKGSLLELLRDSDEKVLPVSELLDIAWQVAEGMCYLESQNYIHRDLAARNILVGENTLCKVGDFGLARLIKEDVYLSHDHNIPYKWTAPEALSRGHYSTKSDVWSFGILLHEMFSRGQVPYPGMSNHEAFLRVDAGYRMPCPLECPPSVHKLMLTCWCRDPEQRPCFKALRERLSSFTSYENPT

In the case of `C[C@@H]1CC(=O)NN=C1c1ccc(NN=C(C#N)C#N)cc1` [levosimendan], the remaining binding at 100 µM was 85% at CSF1R-autoinhibited; 87% on MARK4; 87% at ERK1; 95% in [1]; 100% at TIE1; 100% at ACVR2B. The remaining binding at 100 µM on RIOK3 (read-out: Percent Control (100 uM Levosimendan)) was 0%; on BRAF, 81%; at BRK, 85%; at TSSK3, 100%; at CAMK2A it was 73%; at MAP3K2, 86%. Further, the remaining binding at 100 µM was 62% in assay [2], 81% on TRKB and 100% on ASK1. In addition, the remaining binding at 10 µM at RIOK3 (read-out: Percent Control (10 uM Levosimendan)) was determined as 15%.

Values taken from article PMC6576746, “Rational discovery of dual-indication multi-target PDE/Kinase inhibitor for precision anti-cancer therapy using structural systems pharmacology” (PLoS Computational Biology, 2019).
